From patent publication US20090326064A1, “Pesticidal composition” (priority 2006, published 2009) come the findings set out here.

Structures are written as SMILES.

Holding throughout (assay type): physicochemical
Data set [1] can be described thus: Stability under solar light.
Data set [2] in a line: Vapor pressure. To be noted: at 25° C.
A short description of data set [3]: Stability in general-use solvents. The following applies: such as acidic or alkaline aqueous solutions.

`CC=CC1C(C(=O)OCc2c(F)c(F)c(COC)c(F)c2F)C1(C)C` (stereo not drawn) [Compound A, 2,3,5,6-tetrafluoro-4-methoxymethylbenzyl 1R-trans-3-(1-propenyl(E/Z=1/8))-2,2-dimethylcyclopropanecarboxylate]: the “stability under solar light” value in data set [1] is given as “very stable”. For the same compound, the vapor pressure in data set [2] is reported as 1.96×10^−3 Pa. Also, in data set [3], the “stability in various general-use solvents” value is “stable”.
